Experimental data reported in publication PMC10235067, “Increased renal elimination of endogenous and synthetic pyrimidine nucleosides in concentrative nucleoside transporter 1 deficient mice” (Nature Communications, 2023).

Legend:
CNT1 = settings: for fold increase of content in urine of Slc28a1-/- mice: Slc28a1-/- vs Slc28a1+/+, urine collected over 12 h starvation, 8-week-old mice, n = 6
Experimental: Linearity was established for analytes over the concentration ranges observed and the lower limit of quantification of the LC–MS/MS assay was approximately 0.1 ng/ml for each analyte (Fig. S2).
Standard solutions of all nucleotide targets were serially diluted to generate calibration solutions at concentrations of 0.0, 0.0001, 0.001, 0.01, 0.1, 1.0, and 10 µg/ml. Urine samples were prepared by adding 20 µL of urine solution to 80 µL of 50:50 H2O:MeOH containing internal standard, vortexing and centrifuging at 20,000 × g; then, 50 µL aliquots were placed into glass vials, dried in a SpeedVac and reconstituted in 5% MeOH with 0.1% formic acid for injection.
Samples were quantified using a heated electrospray ionization source (HESI) on a Thermo Scientific TQS Quantiva triple quadrupole mass spectrometer, and separation was achieved using a Thermo Scientific Ultimate 3000 HPLC equipped with an Agilent 120 SB-C18 reversed-phase column (2 × 100 mm, 2.7 µm particle size) maintained at 40 °C. […] For all experiments, the capillary voltage was set to 4.5 kV with a capillary temperature of 350 °C, a vaporizer temperature of 100 °C, a sheath gas flow of 12, an auxiliary gas flow of 13, and a 1.6 sweep gas. For selected reaction monitoring (SRM) mode, Q1 and Q3 were set to 0.7 full width at half maximum (FWHM) resolution, a cycle time of 0.8 s, and a CID gas pressure of 1.5 mTorr.

[1] = Gemcitabine urine pharmacokinetics (renal excretion) in Slc28a1+/+ and Slc28a1-/- mice; settings: WT and KO mouse urine pooled 10 min to 2 h after dFdC 50 mg/kg i.v.
Experimental: THU was added to the mouse urine samples upon collection and frozen until analysis. […] Five microliters of the diluted samples were transferred to a 96-well autosampler plate then 10 µL of internal standard mixture was added and mixed. […] The plate was then transferred to the 4 °C autosampler for analysis.
The chromatographic separation was performed on a Thermo Accucore aQ 2.6 µm, 100 ×2.1 mm column at 30 °C using a gradient with a 10 µL injection volume. The mobiles phases were 1 mM ammonium acetate in deionized water pH 6.8 and acetonitrile. The total run time was 5.5 min. […] The LC–MS/MS analysis was conducted on a Thermo Vanquish UHPLC with a TSQ Quantiva mass spectrometer equipped with an electrospray ionization source.

[2] = Gemcitabine plasma pharmacokinetics in Slc28a1+/+ and Slc28a1-/- mice; settings: Slc28a1+/+ and Slc28a1-/- mice; single i.v. dFdC 50 mg/kg
Experimental: To collect blood, a 5 mm lancet was used to apply pressure to the submandibular vein and release blood flow. For retro-orbital collection, mice were anesthetized with 3% isoflurane in oxygen, and the blood was collected directly into heparinized capillary tubes by applying slight pressure to the medial canthus of the eye. Cardiac puncture was performed as the final collection method by first euthanizing the mice in a CO2 chamber and immediately performing posterior cardiac puncture by inserting a 27 G needle with a 1 ml syringe attachment into the heart. Once blood collection was completed, gentle pressure was applied to the blood collection area using gauze to stop the bleeding. Thirty microliters of blood was collected into heparinized capillary tubes at each time point, transferred into prelabeled 0.5 ml microcentrifuge tubes containing THU (10 µg/ml; final concentration), and immediately processed and snap-frozen following procedures outlined in the “Gemcitabine plasma pharmacokinetics” methods section.
Gemcitabine and dFdU plasma concentrations were measured using a modified version of our previously published UHPLC–MS/MS method for nucleosides[74] […] Noncompartmental pharmacokinetic parameters (Cmax, Tmax, AUC, CL, T1/2, etc.) were calculated using WinNonlin 6.2 software (Pharsight; Mountain View, CA). […] The Cmax and Tmax were obtained from the concentration-time curve. The AUC was calculated according to the linear trapezoidal rule up to the last time point with a measurable concentration of the analyte of interest. Significant differences between Slc28a1^+/+ and Slc28a1^−/− mouse pharmacokinetic parameters (p < 0.05) were evaluated with an unpaired two-sided Student’s t-test.
The resulting supernatant was evaporated to dryness in a SpeedVac, and the remaining residue was reconstituted in mobile phase A for subsequent analysis. […] Subsequent processing was identical to that for the plasma and urine samples.
Briefly, the analysis was performed on an Imtakt Schzero SM C18 column, 2.1 × 100 mm, 3.0 µm particle size. The eluents used consisted of mobile phase A consisting of 50 mM ammonium formate:50 mM ammonium hydroxide (9:1, v/v) (pH = 8.6) and mobile phase B consisting of 50 mM ammonium formate:50 mM ammonium hydroxide (9:1, v/v):ACN (80:20, v/v) (pH = 8.6). […] The injection volume was 10 μL, and the autosampler temperature was set at 4 °C throughout the analysis.
The Waters Triple Quadrupole Mass Spectrometer with an ESI source was operated in negative and positive ion mode at a spray voltage of 2.5 kV, capillary temperature of 150 °C, and vaporizer temperature of 250 °C. Compound optimization was performed manually using the MassLynx 4.1 Software AutoTune Wizard (Waters, Milford, MA) by infusion into the mass spectrometer using a T-connector. […] Analyze concentrations were determined and analyzed using MassLynx Mass Spectrometry Software (Waters; Milford, MA).

fold increase of content in urine of Slc28a1-/- mice (CNT1)	SMILES	further results
4.6 fold	O=c1cc[nH]c(=O)[nH]1 [Uracil]	
52.9 fold	Nc1ccn([C@@H]2O[C@H](CO)[C@@H](O)[C@H]2O)c(=O)n1 [cytidine]	

More lines, now with the values behind:

SMILES	fold increase of content in urine of Slc28a1-/- mice (CNT1)	further results
Nc1ccn([C@@H]2O[C@H](COP(=O)(O)OP(=O)(O)OP(=O)(O)O)[C@@H](O)C2(F)F)c(=O)n1 [dFdC-TP, dFdC triphosphate]		level in urine after dFdC dosing [1]: below the limits of quantification; plasma level after dFdC dosing [2]: did not detect appreciable quantities
Nc1nc2c(ncn2[C@H]2C[C@H](O)[C@@H](CO)O2)c(=O)[nH]1 [deoxyguanosine]		Concentration in urine (CNT1; Slc28a1+/+ and Slc28a1-/- mice, 12 h starvation): undetectable
O=c1ccn([C@H]2C[C@H](O)[C@@H](CO)O2)c(=O)[nH]1 [deoxyuridine]	2.4 fold	
O=c1ccn([C@@H]2O[C@H](CO)[C@@H](O)[C@H]2O)c(=O)[nH]1 [uridine]	5.9 fold	
